Test results reported in patent US20260055102A1 (Redx Pharma Limited, priority 2022, published 2026).

Tests used:
[1] = target: Recombinant human DDR2 (aa427-855 containing a GST tag) (Homo sapiens (Human), UniProt Q16832); test: LanthaScreen Eu Kinase Binding Assay DDR2; details: Kinase Tracer 178 10 nM, at least two independent replicates; for IC50: read-out: DDR2 pIC50 (converted)
Protocol: (§1) DDR1 and DDR2 Biochemical Assay Method The capacity of compounds to bind to DDR1 and DDR2 was quantified using a LanthaScreen Eu Kinase Binding Assay. Recombinant human DDR1 (2.5 nM; aa440-876 containing a GST tag) and DDR2 (1.75 nM; aa427-855 containing a GST tag) were diluted in assay buffer (50 mM HEPES pH7.3, 10 mM MgCl2, 1 mM EGTA and 0.01% Tween) with various concentrations of compound in a 384-well plate and a volume of 5 uL. After a 30-minute incubation at room temperature, 2.5 uL of Eu-anti GST antibody (diluted to 1 nM in assay buffer) plus Kinase Tracer 178 (diluted in assay buffer to 5 nM for DDR1 and 10 nM for DDR2) were added to the plate. Following 60-minute incubation at room temperature, time-resolved fluorescence was measured on a BMG Labtech PHERAstar plate reader. DMSO (1%) and reference compound (1 μM) were used to generate the Max and Min assay signals, respectively. Data was analysed using a four-parameter logistic model to calculate IC50 values, with at least two independent replicates were performed for each compound.

[2] = target: Recombinant human DDR1 (aa440-876 containing a GST tag) (Homo sapiens (Human), UniProt Q08345); test: LanthaScreen Eu Kinase Binding Assay DDR1; details: Kinase Tracer 178 5 nM, at least two independent replicates; for IC50: read-out: DDR1 pIC50 (converted)
Sequence of Recombinant human DDR1 (aa440-876 containing a GST tag) (Q08345 other isoform, or with tags, fused parts or gaps): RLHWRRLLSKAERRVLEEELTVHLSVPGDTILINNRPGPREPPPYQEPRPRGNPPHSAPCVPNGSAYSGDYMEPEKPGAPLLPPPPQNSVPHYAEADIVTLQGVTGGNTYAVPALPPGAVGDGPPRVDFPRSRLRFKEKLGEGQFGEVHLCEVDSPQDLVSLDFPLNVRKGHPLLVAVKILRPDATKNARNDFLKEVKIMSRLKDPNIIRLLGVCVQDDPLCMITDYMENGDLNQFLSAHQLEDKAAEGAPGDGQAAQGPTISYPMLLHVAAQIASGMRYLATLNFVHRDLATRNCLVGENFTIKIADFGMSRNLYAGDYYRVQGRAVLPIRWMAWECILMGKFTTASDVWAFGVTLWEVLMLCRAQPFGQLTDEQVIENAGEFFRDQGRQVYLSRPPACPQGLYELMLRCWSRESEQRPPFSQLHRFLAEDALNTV
Protocol: as §1

Sequence of Recombinant human DDR2 (aa427-855 containing a GST tag) (Q16832 427-855): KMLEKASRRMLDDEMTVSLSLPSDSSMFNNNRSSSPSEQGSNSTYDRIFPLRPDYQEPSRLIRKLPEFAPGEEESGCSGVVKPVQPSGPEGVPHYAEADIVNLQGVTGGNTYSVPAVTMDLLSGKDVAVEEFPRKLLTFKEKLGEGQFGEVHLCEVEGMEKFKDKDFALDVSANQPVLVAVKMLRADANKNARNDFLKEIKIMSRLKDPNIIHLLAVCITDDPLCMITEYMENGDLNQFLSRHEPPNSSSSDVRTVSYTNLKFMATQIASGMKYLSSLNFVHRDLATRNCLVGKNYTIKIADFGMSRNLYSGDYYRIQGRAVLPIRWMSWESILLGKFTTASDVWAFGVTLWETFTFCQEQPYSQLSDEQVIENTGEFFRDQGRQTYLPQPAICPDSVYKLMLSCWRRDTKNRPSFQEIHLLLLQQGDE

Compound | IC50 [1] | IC50 [2] | DDR2 pIC50 [1] | DDR1 pIC50 [2]
Cc1nc(-c2cncc3c2cnn3C)cnc1-n1c(=O)n(CC(=O)N[C@@H](C)C(F)(F)F)c2cccc(C)c21 [Example 115] | 10 to 100 nM | 10 to 100 nM |  | 
Cn1ncc2c(-c3ccc(-n4c(=O)n(CC(=O)N5CCC[C@@H](C(F)(F)F)C5)c5ccccc54)cc3)cncc21 [Example 29, 1-[4-(1-methylpyrazolo[3,4-c]pyridin-4-yl)phenyl]-3-[2-oxo-2-[(3R)-3-(trifluoromethyl)-1-piperidyl]ethyl]benzimidazol-2-one] |  |  | D (pIC50≤6) | A (pIC50>8)
Cn1ncc2c(-c3ccc(-n4c(=O)n(CC(=O)N5CCCC[C@H]5C(F)(F)F)c5ccccc54)cc3)cncc21 [Example 32, 1-[4-(1-methylpyrazolo[3,4-c]pyridin-4-yl)phenyl]-3-[2-oxo-2-[(2S)-2-(trifluoromethyl)-1-piperidyl]ethyl]benzimidazol-2-one] | 100 to 1000 nM |  |  | A (pIC50>8)
Cc1cccc2c1n(-c1cnc(-c3cncc4c3cnn4C)cn1)c(=O)n2CC(=O)N[C@H](C)C(F)(F)F [Example 48, 2-[4-methyl-3-[5-(1-methylpyrazolo[3,4-c]pyridin-4-yl)pyrazin-2-yl]-2-oxo-benzimidazol-1-yl]-N-[(1R)-2,2,2-trifluoro-1-methyl-ethyl]acetamide] |  | 10 to 100 nM | D (pIC50≤6) | 
Cc1cccc2c1n(-c1ccc(-c3cncc4c3cnn4C)cc1)c(=O)n2CC(=O)N1CCO[C@H](C(F)(F)F)C1 [Example 42, 4-methyl-3-[4-(1-methylpyrazolo[3,4-c]pyridin-4-yl)phenyl]-1-[2-oxo-2-[(2S)-2-(trifluoromethyl)morpholin-4-yl]ethyl]benzimidazol-2-one] | 10 to 100 nM |  |  | A (pIC50>8)
Cn1ncc2c(-c3ccc(-n4c(=O)n(CC(=O)NCC(F)(F)F)c5cccc(F)c54)cc3)cncc21 [Example 86, 2-[4-fluoro-3-[4-(1-methylpyrazolo[3,4-c]pyridin-4-yl)phenyl]-2-oxo-benzimidazol-1-yl]-N-(2,2,2-trifluoroethyl)acetamide] |  | 100 to 1000 nM | D (pIC50≤6) | 
Cc1cccc2c1n(-c1ccc(-c3cncc4c3cnn4C)cc1)c(=O)n2CC(=O)N1CCC[C@H]1C(F)F [Example 43, 1-[2-[(2S)-2-(difluoromethyl)pyrrolidin-1-yl]-2-oxo-ethyl]-4-methyl-3-[4-(1-methylpyrazolo[3,4-c]pyridin-4-yl)phenyl]benzimidazol-2-one] | 10 to 100 nM |  |  | A (pIC50>8)
Cc1cc(-n2c(=O)n(CC(=O)NCC(F)(F)F)c3ccccc32)ccc1-c1cncc2c1cnn2C [Example 5, 2-[3-[3-methyl-4-(1-methylpyrazolo[3,4-c]pyridin-4-yl)phenyl]-2-oxobenzimidazol-1-yl]-N-(2,2,2-trifluoroethyl)acetamide] |  |  | D (pIC50≤6) | D (pIC50≤6)
Cn1ncc2c(-c3ccc(-n4c(=O)n(CC(=O)N5CCC[C@H]5C(F)(F)F)c5ccccc54)cn3)cncc21 [Example 65, 1-[6-(1-methylpyrazolo[3,4-c]pyridin-4-yl)-3-pyridyl]-3-[2-oxo-2-[(2S)-2-(trifluoromethyl)pyrrolidin-1-yl]ethyl]benzimidazol-2-one] | 100 to 1000 nM |  |  | A (pIC50>8)
Cc1nc(-n2c(=O)n(CC(=O)N[C@@H](C)C(F)(F)F)c3cccc(C)c32)cnc1-c1cncc2c1cnn2C [Example 101, 2-[4-methyl-3-[6-methyl-5-(1-methylpyrazolo[3,4-c]pyridin-4-yl)pyrazin-2-yl]-2-oxo-benzimidazol-1-yl]-N-[(1S)-2,2,2-trifluoro-1-methyl-ethyl]acetamide] |  | 100 to 1000 nM | D (pIC50≤6) | 
Cc1cccc2c1n(-c1ccc(-c3cncc4c3cnn4C)cc1)c(=O)n2CC(=O)N1CCOC(C(F)(F)F)C1 (centres unmarked) [Example 9, 4-methyl-3-[4-(1-methylpyrazolo[3,4-c]pyridin-4-yl)phenyl]-1-[2-oxo-2-[2-(trifluoromethyl)morpholin-4-yl]ethyl]benzimidazol-2-one] | 10 to 100 nM |  |  | A (pIC50>8)
Cc1cc(-c2cncc3c2cnn3C)ccc1-n1c(=O)n(CC(=O)NCC(F)(F)F)c2ccccc21 [Example 13, 2-[3-[2-methyl-4-(1-methylpyrazolo[3,4-c]pyridin-4-yl)phenyl]-2-oxobenzimidazol-1-yl]-N-(2,2,2-trifluoroethyl)acetamide] |  | 10 to 100 nM | D (pIC50≤6) | 
Cc1nc(-c2cncc3c2cnn3C)ccc1-n1c(=O)n(CC(=O)NCC(F)(F)F)c2cccc(C)c21 [Example 95, 2-[4-methyl-3-[2-methyl-6-(1-methylpyrazolo[3,4-c]pyridin-4-yl)-3-pyridyl]-2-oxo-benzimidazol-1-yl]-N-(2,2,2-trifluoroethyl)acetamide] | 100 to 1000 nM |  |  | A (pIC50>8)
Cc1cccc2c1n(-c1ccc(-c3cncc4c3cnn4C)nc1)c(=O)n2CC(=O)N1CCC[C@H]1C(F)(F)F [Example 56, 4-methyl-3-[6-(1-methylpyrazolo[3,4-c]pyridin-4-yl)-3-pyridyl]-1-[2-oxo-2-[(2S)-2-(trifluoromethyl)pyrrolidin-1-yl]ethyl]benzimidazol-2-one] | 10 to 100 nM |  |  | A (pIC50>8)
Cc1cc(-n2c(=O)n(CC(=O)NCC(F)(F)F)c3cccc(C)c32)cnc1-c1cncc2c1cnn2C [Example 97, 2-[4-methyl-3-[5-methyl-6-(1-methylpyrazolo[3,4-c]pyridin-4-yl)-3-pyridyl]-2-oxo-benzimidazol-1-yl]-N-(2,2,2-trifluoroethyl)acetamide] |  |  | D (pIC50≤6) | D (pIC50≤6)
Cc1nc(-c2cncc3c2cnn3C)ccc1-n1c(=O)n(CC(=O)N[C@@H](C)C(F)(F)F)c2cccc(C)c21 [Example 113] | 100 to 1000 nM | 10 to 100 nM |  | 
Cc1cccc2c1n(-c1ccc(-c3cncc4c3cnn4C)cc1)c(=O)n2CC(=O)N1CCC[C@H]1CF [Example 45, 1-[2-[(2S)-2-(fluoromethyl)pyrrolidin-1-yl]-2-oxo-ethyl]-4-methyl-3-[4-(1-methylpyrazolo[3,4-c]pyridin-4-yl)phenyl]benzimidazol-2-one] | 10 to 100 nM |  |  | A (pIC50>8)
Cn1ncc2c(-c3ccc(-n4c(=O)n(CC(=O)N5CCO[C@H](C(F)(F)F)C5)c5ccccc54)cc3)cncc21 [Example 38, 1-[4-(1-methylpyrazolo[3,4-c]pyridin-4-yl)phenyl]-3-[2-oxo-2-[(2S)-2-(trifluoromethyl)morpholin-4-yl]ethyl]benzimidazol-2-one] |  | 10 to 100 nM | D (pIC50≤6) | 
Cn1ncc2c(-c3ccc(-n4c(=O)n(CC(=O)N5CCC[C@H]5C(F)(F)F)c5cccnc54)cc3)cncc21 [Example 79, 3-[4-(1-methylpyrazolo[3,4-c]pyridin-4-yl)phenyl]-1-[2-oxo-2-[(2S)-2-(trifluoromethyl)pyrrolidin-1-yl]ethyl]imidazo[4,5-b]pyridin-2-one] |  | 10 to 100 nM | D (pIC50≤6) | 
Cc1cccc2c1n(-c1ccc(-c3cncc4c3cnn4C)cn1)c(=O)n2CC(=O)N1CCC[C@H]1C(F)(F)F [Example 59, 4-methyl-3-[5-(1-methylpyrazolo[3,4-c]pyridin-4-yl)-2-pyridyl]-1-[2-oxo-2-[(2S)-2-(trifluoromethyl)pyrrolidin-1-yl]ethyl]benzimidazol-2-one] | 10 to 100 nM |  |  | A (pIC50>8)
Cn1ncc2c(-c3ccc(-n4c(=O)n(CC(=O)N5CC(C(F)(F)F)C5)c5ccccc54)cc3)cncc21 [Example 34, 1-[4-(1-methylpyrazolo[3,4-c]pyridin-4-yl)phenyl]-3-[2-oxo-2-[3-(trifluoromethyl)azetidin-1-yl]ethyl]benzimidazol-2-one] |  | 100 to 1000 nM | D (pIC50≤6) | 
Cc1cccc2c1n(-c1ccc(-c3cncc4[nH]ncc34)nc1)c(=O)n2CC(=O)N[C@@H](C)C(F)(F)F [Example 68, 2-[4-methyl-2-oxo-3-[6-(1H-pyrazolo[3,4-c]pyridin-4-yl)-3-pyridyl]benzimidazol-1-yl]-N-[(1S)-2,2,2-trifluoro-1-methyl-ethyl]acetamide] | 10 to 100 nM |  |  | A (pIC50>8)
Cc1cccc2c1n(-c1ccc(-c3cncc4c3cnn4C)cc1)c(=O)n2CC(=O)N1CCC[C@H]1CF [Example 26, 4-methyl-3-[4-(1-methylpyrazolo[3,4-c]pyridin-4-yl)phenyl]-1-[2-oxo-2-[(2S)-2-(fluoromethyl)pyrrolidin-1-yl]ethyl]benzimidazol-2-one] |  | 10 to 100 nM |  | 
Cc1cccc2c1n(-c1ccc(-c3cncc4c3cnn4C)cn1)c(=O)n2CC(=O)N1CCO[C@H](C(F)(F)F)C1 [Example 61, 4-methyl-3-[5-(1-methylpyrazolo[3,4-c]pyridin-4-yl)-2-pyridyl]-1-[2-oxo-2-[(2S)-2-(trifluoromethyl)morpholin-4-yl]ethyl]benzimidazol-2-one] | 100 to 1000 nM |  |  | 
CN(C)c1cccc2c1n(-c1ccc(-c3cncc4c3cnn4C)cc1)c(=O)n2CC(=O)NCC(F)(F)F [Example 80, 2-[4-(dimethylamino)-3-[4-(1-methylpyrazolo[3,4-c]pyridin-4-yl)phenyl]-2-oxo-benzimidazol-1-yl]-N-(2,2,2-trifluoroethyl)acetamide] |  | 10 to 100 nM |  | 
